The text below walks through data of patent US9533987B2, “Heterocyclic derivates” (KALVISTA PHARMACEUTICALS LIMITED, priority 2013, dated 2017).

Some results are limits rather than exact numbers.

One experiment concerns the target Human plasma kallikrein (Homo sapiens (Human), UniProt P03952). Briefly: Determination of the IC50 for plasma kallikrein (fluorogenic substrate H-DPro-Phe-Arg-AFC). It is filed as biochemical. The following applies: 37° C., read-out: IC50 (human PKaI). Here is the method: Determination of the IC50 for Plasma Kallikrein
Human plasma kallikrein (Protogen) was incubated at 37° C. with the fluorogenic substrate H-DPro-Phe-Arg-AFC and various concentrations of the test compound. Residual enzyme activity (initial rate of reaction) was determined by measuring the change in […] at 410 nm and the IC50 value for the test compound was determined.

A further experiment addresses Human KLK1 (Homo sapiens (Human), UniProt P06870). Briefly: Determination of the IC50 for KLK1 (fluorogenic substrate H-DVal-Leu-Arg-AFC). The following applies: 37° C. It is filed as biochemical. How it is done:
Determination of the IC50 for KLK1
Human KLK1 (Callbiochem) was incubated at 37° C. with the fluorogenic substrate H-DVal-Leu-Arg-AFC and various concentrations of the test compound. Residual enzyme activity (initial rate of reaction) was determined by measuring the change in […] at 410 nm and the IC50 value for the test compound was determined.

Sequence of Human plasma kallikrein (P03952 391-638): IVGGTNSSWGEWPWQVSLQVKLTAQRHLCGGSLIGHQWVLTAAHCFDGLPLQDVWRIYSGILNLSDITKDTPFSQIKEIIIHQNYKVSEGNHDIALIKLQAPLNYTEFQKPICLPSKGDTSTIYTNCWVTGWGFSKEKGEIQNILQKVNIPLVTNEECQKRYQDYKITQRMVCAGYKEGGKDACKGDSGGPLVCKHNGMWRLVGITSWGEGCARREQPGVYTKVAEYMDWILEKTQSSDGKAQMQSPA
Sequence of Human plasma kallikrein (P03952 20-390 partner): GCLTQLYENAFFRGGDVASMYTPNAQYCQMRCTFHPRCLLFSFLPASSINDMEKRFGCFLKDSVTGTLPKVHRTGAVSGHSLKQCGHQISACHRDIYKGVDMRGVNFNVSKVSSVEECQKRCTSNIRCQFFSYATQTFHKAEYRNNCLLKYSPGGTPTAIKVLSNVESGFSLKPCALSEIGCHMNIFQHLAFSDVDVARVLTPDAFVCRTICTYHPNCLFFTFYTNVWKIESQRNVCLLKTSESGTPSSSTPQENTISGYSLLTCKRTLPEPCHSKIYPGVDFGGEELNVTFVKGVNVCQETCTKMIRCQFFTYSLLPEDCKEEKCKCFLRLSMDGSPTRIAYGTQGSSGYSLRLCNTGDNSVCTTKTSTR
Sequence of Human KLK1 (P06870 25-262): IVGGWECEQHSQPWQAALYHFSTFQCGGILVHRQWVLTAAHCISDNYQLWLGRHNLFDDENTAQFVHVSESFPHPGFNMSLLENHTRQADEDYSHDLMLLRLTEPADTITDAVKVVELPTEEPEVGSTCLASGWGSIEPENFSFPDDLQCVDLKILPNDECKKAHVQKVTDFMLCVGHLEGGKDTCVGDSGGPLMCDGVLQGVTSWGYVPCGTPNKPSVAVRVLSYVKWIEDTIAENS

As for `CCC(C)Oc1ccc(Cn2cc(C(=O)NCc3ccc4c(N)nccc4c3)c(C(F)(F)F)n2)cn1` (centres unmarked) [Example 72, 1-(6-sec-Butoxy-pyridin-3-ylmethyl)-3-trifluoromethyl-1H-pyrazole-4-carboxylic acid (1-amino-isoquinolin-6-ylmethyl)-amide], the IC50 (commonly the concentration needed to halve the response being measured) at Human plasma kallikrein was 0.118 µM; against Human KLK1, > 10 µM.

In the case of `Nc1nccc2cc(CNC(=O)c3cn(Cc4cnc(N5CCCC5)c(F)c4)nc3C(F)(F)F)ccc12` [Example 73, 1-(5-Fluoro-6-pyrrolidin-1-yl-pyridin-3-ylmethyl)-3-trifluoromethyl-1H-pyrazole-4-carboxylic acid (1-amino-isoquinolin-6-ylmethyl)-amide], the IC50 at Human plasma kallikrein was found to be 0.0226 µM; on Human KLK1, 1.57 µM.

With `CCOc1cc(Cn2cc(C(=O)NCc3ccc4c(N)nccc4c3)c(C(F)(F)F)n2)cnc1Cl` [Example 74, 1-(6-Chloro-5-ethoxy-pyridin-3-ylmethyl)-3-trifluoromethyl-1H-pyrazole-4-carboxylic acid (1-amino-isoquinolin-6-ylmethyl)-amide], the IC50 on Human plasma kallikrein is 0.425 µM; on Human KLK1, 2.77 µM.

For the compound `CCOc1ncc(Cn2cc(C(=O)NCc3ccc4c(N)nccc4c3)c(C(F)(F)F)n2)cc1F` [Example 75, 1-(6-Ethoxy-5-fluoro-pyridin-3-ylmethyl)-3-trifluoromethyl-1H-pyrazole-4-carboxylic acid (1-amino-isoquinolin-6-ylmethyl)-amide], the IC50 turned out to be 0.0983 µM at Human plasma kallikrein and 1.3 µM against Human KLK1.

As for `Nc1nccc2cc(CNC(=O)c3cn(Cc4ccc(Cn5cccn5)cc4)nc3C(F)(F)F)ccc12` [Example 76, 1-(4-Pyrazol-1-ylmethyl-benzyl)-3-trifluoromethyl-1H-pyrazole-4-carboxylic acid (1-amino-isoquinolin-6-ylmethyl)-amide], the IC50 was 0.00092 µM on Human plasma kallikrein and > 1 µM against Human KLK1.

In the case of `N#Cc1cnn(Cc2ccc(Cn3cc(C(=O)NCc4ccc5c(N)nccc5c4)c(C(F)(F)F)n3)cc2)c1` [Example 77, 1-[4-(4-Cyano-pyrazol-1-ylmethyl)-benzyl]-3-trifluoromethyl-1H-pyrazole-4-carboxylic acid (1-amino-isoquinolin-6-ylmethyl)-amide], the IC50 at Human plasma kallikrein was 0.0854 µM; at Human KLK1, > 10 µM.

Regarding `NC(=O)c1cnn(Cc2ccc(Cn3cc(C(=O)NCc4ccc5c(N)nccc5c4)c(C(F)(F)F)n3)cc2)c1` [Example 78, 1-[4-(4-Carbamoyl-pyrazol-1-ylmethyl)-benzyl]-3-trifluoromethyl-1H-pyrazole-4-carboxylic acid (1-amino-isoquinolin-6-ylmethyl)-amide], the IC50 was 0.0911 µM at Human plasma kallikrein and > 10 µM against Human KLK1.

Turning to `Nc1nccc2cc(CNC(=O)c3cn(Cc4ccc(Cn5cccn5)nc4)nc3C(F)(F)F)ccc12` [Example 79, 1-(6-Pyrazol-1-ylmethyl-pyridin-3-ylmethyl)-3-trifluoromethyl-1H-pyrazole-4-carboxylic acid (1-amino-isoquinolin-6-ylmethyl)-amide], the IC50 at Human plasma kallikrein is 0.00229 µM; against Human KLK1 it was > 10 µM.

`CCOc1cc(Cn2cc(C(=O)NCc3ccc4c(N)nccc4c3)c(C(F)(F)F)n2)ccn1` [Example 80, 1-(2-Ethoxy-pyridin-4-ylmethyl)-3-trifluoromethyl-1H-pyrazole-4-carboxylic acid (1-amino-isoquinolin-6-ylmethyl)-amide]: the IC50 at Human plasma kallikrein was 0.206 µM; on Human KLK1, 9.28 µM.

Take `Nc1nccc2cc(CNC(=O)c3cn(Cc4csc(Cn5cccn5)n4)nc3C(F)(F)F)ccc12` [Example 81, 1-(2-Pyrazol-1-ylmethyl-thiazol-4-ylmethyl)-3-trifluoromethyl-1H-pyrazole-4-carboxylic acid (1-amino-isoquinolin-6-ylmethyl)-amide]: the results for the IC50 at Human plasma kallikrein and at Human KLK1 were 0.0265 µM and 8.97 µM, respectively.

For the compound `Cc1cnn(Cc2nc(Cn3cc(C(=O)NCc4ccc5c(N)nccc5c4)c(C(F)(F)F)n3)cs2)c1` [Example 82, 1-[2-(4-Methyl-pyrazol-1-ylmethyl)-thiazol-4-ylmethyl]-3-trifluoromethyl-1H-pyrazole-4-carboxylic acid (1-amino-isoquinolin-6-ylmethyl)-amide], the half-inhibitory concentration (IC50) is 0.0212 µM on Human plasma kallikrein and 4.71 µM against Human KLK1.

As to `COCCN(C)c1ccc(Cn2cc(C(=O)NCc3ccc4c(N)nccc4c3)c(C3CC3)n2)cn1` [Example 86, 3-Cyclopropyl-1-{6-[(2-methoxy-ethyl)-methyl-amino]-pyridin-3-ylmethyl}-1H-pyrazole-4-carboxylic acid (1-amino-isoquinolin-6-ylmethyl)-amide], the IC50 on Human plasma kallikrein came to 0.0561 µM; on Human KLK1 it was 8.79 µM.

In the case of `Nc1nccc2cc(CNC(=O)c3cn(Cc4ccc(N5CCC(F)(F)C5)nc4)nc3C3CC3)ccc12` [Example 87, 3-Cyclopropyl-1-[6-(3,3-difluoro-pyrrolidin-1-yl)-pyridin-3-ylmethyl]-1H-pyrazole-4-carboxylic acid (1-amino-isoquinolin-6-ylmethyl)-amide], the IC50 on Human plasma kallikrein worked out at 0.0232 µM; against Human KLK1, 6.46 µM.

As for `COc1cc(Cn2cc(C(=O)NCc3ccc4c(N)nccc4c3)c(C3CC3)n2)cc(N2CCCC2)n1` [Example 88, 3-Cyclopropyl-1-(2-methoxy-6-pyrrolidin-1-yl-pyridin-4-ylmethyl)-1H-pyrazole-4-carboxylic acid (1-amino-isoquinolin-6-ylmethyl)-amide], the IC50 on Human plasma kallikrein was 0.112 µM; against Human KLK1 it was 9.63 µM.

Consider `COc1cc(N2CCCC2)ncc1Cn1cc(C(=O)NCc2ccc3c(N)nccc3c2)c(C2CC2)n1` [Example 89, 3-Cyclopropyl-1-(4-methoxy-6-pyrrolidin-1-yl-pyridin-3-ylmethyl)-1H-pyrazole-4-carboxylic acid (1-amino-isoquinolin-6-ylmethyl)-amide], for which the IC50 on Human plasma kallikrein stood at 0.0178 µM; against Human KLK1 it was 0.96 µM.

Take `Nc1nccc2cc(CNC(=O)c3cn(Cc4ccc(N5CCCC5)nc4)nc3C3CC3)ccc12` [Example 90, 3-Cyclopropyl-1-(6-pyrrolidin-1-yl-pyridin-3-ylmethyl)-1H-pyrazole-4-carboxylic acid (1-amino-isoquinolin-6-ylmethyl)-amide]: the IC50 at Human plasma kallikrein was determined as 0.0116 µM; against Human KLK1 it was 4.7 µM.

With `Nc1nccc2cc(CNC(=O)c3cn(Cc4ccc(Cn5ccnn5)cc4)nc3C3CC3)ccc12` [Example 91, 3-Cyclopropyl-1-(4-[1,2,3]triazol-1-ylmethyl-benzyl)-1H-pyrazole-4-carboxylic acid (1-amino-isoquinolin-6-ylmethyl)-amide], the IC50 is 0.0138 µM at Human plasma kallikrein and > 10 µM against Human KLK1.

For `Nc1nccc2cc(CNC(=O)c3cn(Cc4ccc(OCC(F)(F)F)nc4)nc3C3CC3)ccc12` [Example 92, 3-Cyclopropyl-1-[6-(2,2,2-trifluoro-ethoxy)-pyridin-3-ylmethyl]-1H-pyrazole-4-carboxylic acid (1-amino-isoquinolin-6-ylmethyl)-amide], the values for the concentration for half-maximal inhibition (IC50) at Human plasma kallikrein and at Human KLK1 were 0.109 µM and > 10 µM, respectively.

As to `Nc1nccc2cc(CNC(=O)c3cn(Cc4ccc(Oc5ccccc5)nc4)nc3C3CC3)ccc12` [Example 93, 3-Cyclopropyl-1-(6-phenoxy-pyridin-3-ylmethyl)-1H-pyrazole-4-carboxylic acid (1-amino-isoquinolin-6-ylmethyl)-amide], the IC50 on Human plasma kallikrein was 0.0751 µM; at Human KLK1, > 10 µM.

`CCOc1ncc(Cn2cc(C(=O)NCc3ccc4c(N)nccc4c3)c(C3CC3)n2)cc1Cl` [Example 94, 1-(5-Chloro-6-ethoxy-pyridin-3-ylmethyl)-3-cyclopropyl-1H-pyrazole-4-carboxylic acid (1-amino-isoquinolin-6-ylmethyl)-amide]: the IC50 is 0.0532 µM on Human plasma kallikrein and 2 µM on Human KLK1.

For the compound `CCN(CC)c1ncc(Cn2cc(C(=O)NCc3ccc4c(N)nccc4c3)c(C3CC3)n2)cc1F` [Example 95, 3-Cyclopropyl-1-(6-diethylamino-5-fluoro-pyridin-3-ylmethyl)-1H-pyrazole-4-carboxylic acid (1-amino-isoquinolin-6-ylmethyl)-amide], the IC50 came to 0.034 µM at Human plasma kallikrein and 9.64 µM against Human KLK1.

On to `Nc1nccc2cc(CNC(=O)c3cn(Cc4cnc(N5CCCC5)c(Cl)c4)nc3C3CC3)ccc12` [Example 97, 1-(5-Chloro-6-pyrrolidin-1-yl-pyridin-3-ylmethyl)-3-cyclopropyl-1H-pyrazole-4-carboxylic acid (1-amino-isoquinolin-6-ylmethyl)-amide], for which the half-inhibitory concentration (IC50) amounted to 0.0185 µM at Human plasma kallikrein and 3.01 µM at Human KLK1.

In the case of `CCOc1ccc(Cn2cc(C(=O)NCc3ccc4c(N)nccc4c3)c(N)n2)cn1` [Example 98, 3-Amino-1-(6-ethoxy-pyridin-3-ylmethyl)-1H-pyrazole-4-carboxylic acid (1-amino-isoquinolin-6-ylmethyl)-amide], the IC50 is 0.0624 µM at Human plasma kallikrein and 3.14 µM on Human KLK1.

Regarding `Nc1nn(Cc2ccc(N3CCCC3)nc2)cc1C(=O)NCc1ccc2c(N)nccc2c1` [Example 99, 3-Amino-1-(6-pyrrolidin-1-yl-pyridin-3-ylmethyl)-1H-pyrazole-4-carboxylic acid (1-amino-isoquinolin-6-ylmethyl)-amide], the half-maximal inhibitory concentration (IC50) at Human plasma kallikrein is 0.00415 µM; against Human KLK1, 3.46 µM.

On to `Nc1nn(Cc2ccc(Cn3ccccc3=O)cc2)cc1C(=O)NCc1cccc2[nH]ncc12` [Example 113, 3-Amino-1-[4-(2-oxo-2H-pyridin-1-ylmethyl)-benzyl]-1H-pyrazole-4-carboxylic acid (1H-indazol-4-ylmethyl)-amide], for which the IC50 on Human plasma kallikrein came out at 0.0133 µM; on Human KLK1, 5.95 µM.
